Data as given in the supplement of paper PMC10627819.
≈ marks a conversion by molar mass, not a printed value.

Legend:
S. aureus DSM 20231 [1] = test: fitness (endpoint OD595 vs no drug) (fraction); higher = more growth
How it was run: (§1)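 With the first reading as background, OD595 was measured every 30 min for 14 h in 384-well plates kept at 37 °C and inoculated at OD595 0.01. TSB, LB Lennox or CY was the medium. Fitness is the optical density at the transition into stationary phase divided by the robust mean of no-drug control wells, with a cap of 1.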

S. pneumoniae D39V [2] = test: as above
How it was run: as §1

S. aureus Newman [3] = test: as above
How it was run: as §1

B. subtilis 168 [4] = test: as above
How it was run: as §1

S. aureus DSM 20231 [5] = test system: S. aureus DSM 20231
S. pneumoniae D39V [6] = test system: S. pneumoniae D39V
S. aureus Newman [7] = test system: S. aureus Newman
B. subtilis 168 [8] = test system: B. subtilis 168
S. aureus DSM 20231 [9] = test: Bliss interaction score (quartile over a dose matrix) (fitness difference); higher = more antagonism (negative = synergy)
How it was run: (§2)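 Each plate was normalised to the robust mean of its own no-drug wells, using OD595 at entry into stationary phase, with values capped at 1. This normalised growth is the fitness value. The Bliss score is the difference between observed and product-expected fitness, with single-drug fitness inferred from the combination data and quartiles taken over technical, biological and donor/recipient replicates.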

S. pneumoniae D39V [10] = test: as above
How it was run: as §2

S. aureus Newman [11] = test: as above
How it was run: as §2

B. subtilis 168 [12] = test: as above
How it was run: as §2
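For Bliss interaction score (quartile over a dose matrix) in this document: first quartile when negative (synergy) and third quartile when positive (antagonism).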

CN(N=O)C(=O)N[C@@H](C=O)[C@@H](O)[C@H](O)[C@H](O)CO [Streptozotocin]
fitness
Conditions	0.15 µg/mL	0.3 µg/mL	0.6 µg/mL	1.2 µg/mL	2.4 µg/mL	4.8 µg/mL
B. subtilis 168 [4]	0.987	0.961	0.99	–	–	–
S. aureus DSM 20231 [1]	0.891	0.843	0.756	–	–	–
S. aureus Newman [3]	0.852	0.735	0.524	–	–	–
S. pneumoniae D39V [2]	–	–	–	0.96	0.936	0.975

Conditions	MIC [µg/mL]
B. subtilis 168 [8]	0.7 (≈ 2.64 µM)
S. aureus DSM 20231 [5]	0.8 (≈ 3.02 µM)
S. aureus Newman [7]	0.8 (≈ 3.02 µM)
S. pneumoniae D39V [6]	5 (≈ 18.9 µM)

CC[C@H]1OC(=O)[C@H](C)C(=O)[C@H](C)[C@@H](O[C@@H]2O[C@H](C)C[C@H](N(C)C)[C@H]2O)[C@](C)(OC)C[C@@H](C)C(=O)[C@H](C)[C@H]2N(CCCCn3cnc(-c4cccnc4)c3)C(=O)O[C@]12C [Telithromycin]
Conditions	MIC [µg/mL]
S. aureus DSM 20231 [5]	0.15 (≈ 0.185 µM)
S. aureus Newman [7]	0.15 (≈ 0.185 µM)
S. pneumoniae D39V [6]	0.04 (≈ 0.0493 µM)

C[n+]1ccc(-c2cc[n+](C)cc2)cc1 [Paraquat] + CCN(CC)CCOC(=O)c1ccc(N)cc1 [Procaine]
fitness
Conditions	first compound 1.25 µg/mL	first compound 1.5 µg/mL	first compound 2.5 µg/mL	first compound 3 µg/mL	first compound 5 µg/mL	first compound 6 µg/mL
B. subtilis 168 [4], partner 85.5 µg/mL	0.954	–	0.877	–	0.813	–
B. subtilis 168 [4], partner 171 µg/mL	0.943	–	0.935	–	0.837	–
B. subtilis 168 [4], partner 342 µg/mL	0.89	–	0.89	–	0.812	–
S. aureus DSM 20231 [1], partner 85.5 µg/mL	0.906	–	0.944	–	0.95	–
S. aureus DSM 20231 [1], partner 171 µg/mL	0.936	–	0.981	–	0.996	–
S. aureus DSM 20231 [1], partner 342 µg/mL	0.966	–	0.97	–	0.98	–
S. aureus Newman [3], partner 85.5 µg/mL	0.959	–	0.917	–	0.948	–
S. aureus Newman [3], partner 171 µg/mL	0.956	–	0.909	–	0.951	–
S. aureus Newman [3], partner 342 µg/mL	0.944	–	0.947	–	0.937	–
S. pneumoniae D39V [2], partner 85.5 µg/mL	–	≥ 1	–	≥ 1	–	≥ 1
S. pneumoniae D39V [2], partner 171 µg/mL	–	≥ 1	–	0.998	–	≥ 1
S. pneumoniae D39V [2], partner 342 µg/mL	–	0.988	–	0.971	–	0.951

Conditions	Bliss interaction score
B. subtilis 168 [12]	0.0621
S. aureus DSM 20231 [9]	0.0567
S. aureus Newman [11]	0.0516
S. pneumoniae D39V [10]	0.0315

Cc1cc(NS(=O)(=O)c2ccc(N)cc2)no1 [Sulfamethoxazol] + CC1=C\[C@@H](O)CC(=O)Cc2nc(co2)C(=O)N2CCC=C2C(=O)O[C@H](C(C)C)[C@H](C)/C=C/C(=O)NC\C=C\1 [Virginiamycin M1]
fitness
Conditions	first compound 1 µg/mL	first compound 2 µg/mL	first compound 4 µg/mL
B. subtilis 168 [4], partner 0.0625 µg/mL	0.887	0.905	0.901
B. subtilis 168 [4], partner 0.125 µg/mL	0.878	0.876	0.901
B. subtilis 168 [4], partner 0.25 µg/mL	0.983	0.919	0.993
S. aureus DSM 20231 [1], partner 0.0625 µg/mL	≥ 1	≥ 1	0.964
S. aureus DSM 20231 [1], partner 0.125 µg/mL	≥ 1	0.995	0.955
S. aureus DSM 20231 [1], partner 0.25 µg/mL	0.944	0.971	0.95
S. aureus Newman [3], partner 0.0625 µg/mL	≥ 1	≥ 1	≥ 1
S. aureus Newman [3], partner 0.125 µg/mL	≥ 1	≥ 1	≥ 1
S. aureus Newman [3], partner 0.25 µg/mL	≥ 1	≥ 1	≥ 1
S. pneumoniae D39V [2], partner 0.5 µg/mL	0.992	0.99	0.928
S. pneumoniae D39V [2], partner 1 µg/mL	0.988	0.986	0.917
S. pneumoniae D39V [2], partner 2 µg/mL	0.906	0.93	0.925

one replicate
Conditions	fitness
B. subtilis 168 [4], first compound 0.5 µg/mL, partner 0.0625 µg/mL	0.982
B. subtilis 168 [4], first compound 0.5 µg/mL, partner 0.125 µg/mL	0.928
B. subtilis 168 [4], first compound 0.5 µg/mL, partner 0.25 µg/mL	≥ 1
S. aureus DSM 20231 [1], first compound 1 µg/mL, partner 0.5 µg/mL	0.88
S. aureus DSM 20231 [1], first compound 1 µg/mL, partner 1 µg/mL	0.709
S. aureus DSM 20231 [1], first compound 2 µg/mL, partner 0.5 µg/mL	0.915
S. aureus DSM 20231 [1], first compound 2 µg/mL, partner 1 µg/mL	0.679
S. aureus DSM 20231 [1], first compound 4 µg/mL, partner 0.5 µg/mL	0.797
S. aureus DSM 20231 [1], first compound 4 µg/mL, partner 1 µg/mL	0.8
S. aureus Newman [3], first compound 1 µg/mL, partner 0.5 µg/mL	0.873
S. aureus Newman [3], first compound 1 µg/mL, partner 1 µg/mL	0.869
S. aureus Newman [3], first compound 1 µg/mL, partner 2 µg/mL	0.841
S. aureus Newman [3], first compound 2 µg/mL, partner 0.5 µg/mL	0.911
S. aureus Newman [3], first compound 2 µg/mL, partner 1 µg/mL	0.925
S. aureus Newman [3], first compound 2 µg/mL, partner 2 µg/mL	0.809
S. aureus Newman [3], first compound 4 µg/mL, partner 0.5 µg/mL	0.956
S. aureus Newman [3], first compound 4 µg/mL, partner 1 µg/mL	0.908
S. aureus Newman [3], first compound 4 µg/mL, partner 2 µg/mL	0.839
S. aureus Newman [3], first compound 8 µg/mL, partner 0.0625 µg/mL	0.905
S. aureus Newman [3], first compound 8 µg/mL, partner 0.125 µg/mL	0.921
S. aureus Newman [3], first compound 8 µg/mL, partner 0.25 µg/mL	0.945
S. pneumoniae D39V [2], first compound 1 µg/mL, partner 0.15 µg/mL	0.905
S. pneumoniae D39V [2], first compound 1 µg/mL, partner 0.3 µg/mL	0.895
S. pneumoniae D39V [2], first compound 2 µg/mL, partner 0.15 µg/mL	0.923
S. pneumoniae D39V [2], first compound 2 µg/mL, partner 0.3 µg/mL	0.902
S. pneumoniae D39V [2], first compound 4 µg/mL, partner 0.15 µg/mL	0.92
S. pneumoniae D39V [2], first compound 4 µg/mL, partner 0.3 µg/mL	0.913

Conditions	Bliss interaction score
B. subtilis 168 [12]	0.0577
S. aureus DSM 20231 [9]	0.0829
S. aureus Newman [11]	0.0283
S. pneumoniae D39V [10]	-0.05
